Assay results: ChEMBL document CHEMBL6078709, “Discovery of Cyclic Lipopeptides, Octaminomycins C and D, by Engineering LysR Transcriptional Regulator of Streptomyces sp” (J Nat Prod, 2024)
Positions of bridges follow the written chain, without caps; N, C: chain ends. Non-standard residues stand in square brackets, D forms with d. Residues, ends and D or L forms follow the SMILES beside them. *: point of attachment. NMeY = CN[C@@H](Cc1ccc(O)cc1)C(=O)O; Propionyl = CCC(=O)*

What was measured:
Assay type in all cases: functional, cell-based
A549 = test: Antiproliferative activity against human A549 cells assessed as inhibition of cell growth incubated for 72 hrs by sulforhodamine B assay; details: A549, 72 h
HUVEC = test: Antiangiogenic activity in human HUVEC cells assessed as inhibition of VEGF-induced tube formation incubated for 6 hrs by matrigel based inverted microscopic analysis
SK-HEP1 = test: Antiproliferative activity against human SK-HEP1 cells assessed as inhibition of cell growth incubated for 72 hrs by sulforhodamine B assay; details: SK-HEP1, 72 h
MDA-MB-231 = test: Antiproliferative activity against human MDA-MB-231 cells assessed as inhibition of cell growth incubated for 72 hrs by sulforhodamine B assay; details: MDA-MB-231, 72 h
SNU-638 = test: Antiproliferative activity against human SNU-638 cells assessed as inhibition of cell growth incubated for 72 hrs by sulforhodamine B assay; details: SNU-638, 72 h
HCT-116 = test: Antiproliferative activity against human HCT-116 cells assessed as inhibition of cell growth incubated for 72 hrs by sulforhodamine B assay; details: HCT-116, 72 h

SMILES	IC50 (A549)	IC50 (HUVEC)	IC50 (SK-HEP1)	IC50 (MDA-MB-231)	IC50 (SNU-638)	IC50 (HCT-116)
CCC(=O)N[C@@H]1C(=O)N[C@@H](Cc2ccccc2)C(=O)N[C@H](CC(C)C)C(=O)N[C@@H](C(C)C)C(=O)N2CCC[C@H]2C(=O)N[C@@H](CC(C)C)C(=O)N(C)[C@@H](Cc2ccccc2)C(=O)N2CCC[C@H]2C(=O)O[C@@H]1C	12.3 µM	> 40 µM	13.1 µM	12 µM	> 20 µM	> 20 µM
CCC(=O)N[C@@H]1C(=O)N[C@@H](Cc2ccccc2)C(=O)N[C@H](CC(C)C)C(=O)N[C@@H](C(C)C)C(=O)N2CCC[C@H]2C(=O)N[C@@H](CC(C)C)C(=O)N(C)[C@@H](Cc2ccc(O)cc2)C(=O)N2CCCC[C@H]2C(=O)O[C@@H]1C	15.5 µM	> 40 µM	17.4 µM	> 20 µM	17.2 µM	> 20 µM
CC(=O)N[C@@H]1C(=O)N[C@@H](Cc2ccccc2)C(=O)N[C@H](CC(C)C)C(=O)N[C@@H](C(C)C)C(=O)N2CCC[C@H]2C(=O)N[C@@H](CC(C)C)C(=O)N(C)[C@@H](Cc2ccc(O)cc2)C(=O)N2CCC[C@H]2C(=O)O[C@@H]1C (Ac-TF[dL]VPL[NMeY]P; ester 1-C)	> 20 µM	28 µM	19 µM	> 20 µM	16.8 µM	> 20 µM
CCC(=O)N[C@@H]1C(=O)N[C@@H](Cc2ccccc2)C(=O)N[C@H](CC(C)C)C(=O)N[C@@H](C(C)C)C(=O)N2CCC[C@H]2C(=O)N[C@@H](CC(C)C)C(=O)N(C)[C@@H](Cc2ccc(O)cc2)C(=O)N2CCC[C@H]2C(=O)O[C@@H]1C (Propionyl-TF[dL]VPL[NMeY]P; ester 1-C)	> 20 µM	> 40 µM	> 20 µM	> 20 µM	> 20 µM	> 20 µM
COc1cc([C@@H]2c3cc4c(cc3[C@@H](O[C@@H]3O[C@@H]5CO[C@@H](C)O[C@H]5[C@H](O)[C@H]3O)[C@H]3COC(=O)[C@H]23)OCO4)cc(OC)c1O [ETOPOSIDE]	2.73 µM	–	3.78 µM	2.43 µM	1.96 µM	3.16 µM
CCN(CC)CCNC(=O)c1c(C)[nH]c(/C=C2\C(=O)Nc3ccc(F)cc32)c1C [SUNITINIB]	–	3.5 µM	–	–	–	–
